Test results reported in patent US8912216B2, “Hetaryl-[1,8]naphthyridine derivatives” (Merck Patent GmbH, priority 2010, dated 2014).

Experiments:
[1] = tested on: TGF-beta-induced phosphorylation of Smad2 and Smad3 in Mv1-Lu cells; experiment: Inhibition of Smad2/3 phosphorylation in Mv1Lu cells (Example 35A); type: cell-based, mink Mustela vison; details: Neogale vison, Mv1-Lu cells, TGF-beta 1 5 ng/ml, phospho-Smad2/3 ELISA, read-out: TβR activity (Example 35A)
Method in brief: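 Serum-starved (16-20 h) Mv1-Lu mink lung epithelial cells were pre-incubated 1.5 h with compound dilutions (0.2% DMSO), then stimulated 1 h with 5 ng/ml TGF-beta 1. Phospho-Smad2 (Ser465/467)/Smad3 (Ser423/425) in lysates was measured by ELISA. IC50 came from dose-response fits between stimulated and unstimulated controls.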

GST-ALK5 = biological target: T1, GST-ALK5 (Homo sapiens, UniProt P36897); experiment: In-vitro (enzyme) kinase assay, 384-well flashplate (Example 36); type: biochemical; details: GST-ALK5, GST-SMAD2 substrate, 3 mM ATP, 30° C., 45 min; read-out: TβR activity (Example 36)
T1 sequence (P36897 34-503): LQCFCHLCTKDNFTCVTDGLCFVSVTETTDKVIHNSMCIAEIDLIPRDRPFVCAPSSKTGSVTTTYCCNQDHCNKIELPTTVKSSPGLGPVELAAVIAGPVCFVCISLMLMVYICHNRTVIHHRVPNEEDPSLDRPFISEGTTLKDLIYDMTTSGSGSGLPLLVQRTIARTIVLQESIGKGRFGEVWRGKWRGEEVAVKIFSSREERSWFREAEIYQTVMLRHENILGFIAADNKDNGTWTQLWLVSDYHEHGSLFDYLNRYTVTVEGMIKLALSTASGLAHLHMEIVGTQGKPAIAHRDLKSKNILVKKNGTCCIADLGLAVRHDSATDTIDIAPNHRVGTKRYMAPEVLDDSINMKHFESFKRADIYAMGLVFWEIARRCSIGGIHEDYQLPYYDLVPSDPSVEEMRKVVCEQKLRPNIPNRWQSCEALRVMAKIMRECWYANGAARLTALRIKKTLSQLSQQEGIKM
Method in brief: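 Radiometric flashplate assay: 31.2 nM GST-ALK5 phosphorylating 439 nM GST-SMAD2 with 3 mM ATP plus ³³P-ATP, in HEPES/MgCl2/MnCl2/DTT/BSA buffer pH 7.4, 45 min at 30 °C, 5-10 compound concentrations. EDTA stop, filtration and washing, then radioactivity counted; IC50 derived from the curve.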

Compound: CN1CCC(NC(=O)c2cccc(-c3cncc(-c4cc(-c5cc(Cl)ccc5F)nc5ncccc45)c3)c2)CC1 [compound 126, 3-{5-[2-(5-Chloro-2-fluoro-phenyl)-[1,8]naphthyridin-4-yl]-pyridin-3-yl}-N-(1-methyl-piperidin-4-yl)-benzamide]
- IC50 [1]: 100 to 1000 nM
- IC50 (GST-ALK5): 100 to 1000 nM

Compound: CNC(=O)c1cccc(-c2cncc(-c3cc(-c4cc(Cl)ccc4F)nc4ncccc34)c2)n1 [compound 127, 5′-[2-(5-Chloro-2-fluoro-phenyl)-[1,8]naphthyridin-4-yl]-[2,3′]bipyridinyl-6-carboxylic acid methylamide]
- IC50 [1]: > 10000 nM
- IC50 (GST-ALK5): 1000 to 10000 nM

Compound: Cc1ccn(-c2cc(-c3cncc(-c4ccc(N5CCN(C)CC5)cc4)c3)c3cccnc3n2)n1 [compound 128, 4-{5-[4-(4-Methyl-piperazin-1-yl)-phenyl]-pyridin-3-yl}-2-(3-methyl-pyrazol-1-yl)-[1,8]naphthyridine]
- IC50 [1]: 1000 to 10000 nM
- IC50 (GST-ALK5): 1000 to 10000 nM

Compound: Nc1cccnc1-c1cncc(-c2cc(-c3cc(Cl)ccc3F)nc3ncccc23)c1 [compound 129, 5′-[2-(5-Chloro-2-fluoro-phenyl)-[1,8]naphthyridin-4-yl]-[2,3′]bipyridinyl-3-ylamine]
- IC50 [1]: > 10000 nM
- IC50 (GST-ALK5): > 10000 nM

Compound: CN1CCN(c2ccc(-c3cnnc(-c4cc(-c5cc(Cl)ccc5F)nc5ncccc45)c3)cc2)CC1 [compound 130, 2-(5-Chloro-2-fluoro-phenyl)-4-{5-[4-(4-methyl-piperazin-1-yl)-phenyl]-pyridazin-3-yl}-[1,8]naphthyridine]
- IC50 [1]: 1000 to 10000 nM
- IC50 (GST-ALK5): 1000 to 10000 nM

Compound: O=C1COc2ccc(-c3cncc(-c4cc(-c5cc(Cl)ccc5F)nc5ncccc45)c3)cc2N1 [compound 131, 6-{5-[2-(5-Chloro-2-fluoro-phenyl)-[1,8]naphthyridin-4-yl]-pyridin-3-yl}-4H-benzo[1,4]oxazin-3-one]
- IC50 [1]: 100 to 1000 nM
- IC50 (GST-ALK5): < 100 nM

Compound: CN1CCN(c2ccnc(-c3cncc(-c4cc(-c5cc(Cl)ccc5F)nc5ncccc45)c3)c2)CC1 [compound 132, 2-(5-Chloro-2-fluoro-phenyl)-4-[4-(4-methyl-piperazin-1-yl)-[2,3′]bipyridinyl-5′-yl]-[1,8]naphthyridine]
- IC50 [1]: < 100 nM
- IC50 (GST-ALK5): < 100 nM

Compound: N#Cc1ccnc(-c2cncc(-c3cc(-c4cc(Cl)ccc4F)nc4ncccc34)c2)c1 [compound 133, 5′-[2-(5-Chloro-2-fluoro-phenyl)-[1,8]naphthyridin-4-yl]-[2,3′]bipyridinyl-4-carbonitrile]
- IC50 [1]: > 10000 nM
- IC50 (GST-ALK5): > 10000 nM

Compound: Fc1ccc(Cl)cc1-c1cc(-c2cncc(-c3ccc4c(c3)OCCO4)c2)c2cccnc2n1 [compound 134, 2-(5-Chloro-2-fluoro-phenyl)-4-[5-(2,3-dihydro-benzo[1,4]dioxin-6-yl)-pyridin-3-yl]-[1,8]naphthyridine]
- IC50 [1]: < 100 nM
- IC50 (GST-ALK5): 100 to 1000 nM

Compound: NS(=O)(=O)c1cccc(-c2cncc(-c3cc(-c4cc(Cl)ccc4F)nc4ncccc34)c2)c1 [compound 135, 3-{5-[2-(5-Chloro-2-fluoro-phenyl)-[1,8]naphthyridin-4-yl]-pyridin-3-yl}-benzene-sulfonamide]
- IC50 [1]: 100 to 1000 nM
- IC50 (GST-ALK5): < 100 nM

Compound: Fc1ccc(Cl)cc1-c1cc(-c2cncc(-c3ccc4c(c3)CNCC4)c2)c2cccnc2n1 [compound 136, 2-(5-Chloro-2-fluoro-phenyl)-4-[5-(1,2,3,4-tetrahydro-isoquinolin-7-yl)-pyridin-3-yl]-[1,8]naphthyridine]
- IC50 [1]: < 100 nM
- IC50 (GST-ALK5): < 100 nM

Compound: Fc1ccc(F)c(-c2cc(-c3cccnc3)c3cccnc3n2)c1 [compound 137, 2-(2,5-Difluoro-phenyl)-4-pyridin-3-yl-[1,8]naphthyridine]
- IC50 [1]: > 10000 nM
- IC50 (GST-ALK5): 1000 to 10000 nM

Compound: NC(=O)COc1ccc(-c2cncc(-c3cc(-c4cc(Cl)ccc4F)nc4ncccc34)c2)cc1 [compound 138, 2-(4-{5-[2-(5-Chloro-2-fluoro-phenyl)-[1,8]naphthyridin-4-yl]-pyridin-3-yl}-phenoxy)-acetamide]
- IC50 [1]: 100 to 1000 nM
- IC50 (GST-ALK5): < 100 nM

Compound: CN(C)CCCOc1ccc(-c2cncc(-c3cc(-c4cc(Cl)ccc4F)nc4ncccc34)c2)cc1 [compound 139, [3-(4-{5-[2-(5-Chloro-2-fluoro-phenyl)-[1,8]naphthyridin-4-yl]-pyridin-3-yl}-phenoxy)-propyl]-dimethyl-amine]
- IC50 [1]: < 100 nM
- IC50 (GST-ALK5): < 100 nM

Compound: CN1CCN(c2ccc(-c3cncc(-c4cc(-c5cc(F)ccc5F)nc5ncccc45)c3)nn2)CC1 [compound 140, 2-(2,5-Difluoro-phenyl)-4-{5-[6-(4-methyl-piperazin-1-yl)-pyridazin-3-yl]-pyridin-3-yl}-[1,8]naphthyridine]
- IC50 [1]: 1000 to 10000 nM
- IC50 (GST-ALK5): 100 to 1000 nM

Compound: CN1CCN(c2cccc(-c3cncc(-c4cc(-c5cc(Cl)ccc5F)nc5ncccc45)c3)n2)CC1 [compound 141, 2-(5-Chloro-2-fluoro-phenyl)-4-[6-(4-methyl-piperazin-1-yl)-[2,3′]bipyridinyl-5′-yl]-[1,8]naphthyridine]
- IC50 [1]: 100 to 1000 nM
- IC50 (GST-ALK5): 100 to 1000 nM

Compound: NCCOc1cccc(-c2cncc(-c3cc(-c4cc(Cl)ccc4F)nc4ncccc34)c2)c1 [compound 143, 2-(3-{5-[2-(5-Chloro-2-fluoro-phenyl)-[1,8]naphthyridin-4-yl]-pyridin-3-yl}-phenoxy)-ethylamine]
- IC50 [1]: 100 to 1000 nM
- IC50 (GST-ALK5): < 100 nM

Compound: Fc1ccc(F)c(-c2cc(-c3cncc(-c4cccc(OC5CCNCC5)c4)c3)c3cccnc3n2)c1 [compound 144, 2-(2,5-Difluoro-phenyl)-4-{5-[3-(piperidin-4-yloxy)-phenyl]-pyridin-3-yl}-[1,8]naphthyridine]
- IC50 [1]: 100 to 1000 nM
- IC50 (GST-ALK5): < 100 nM

Compound: O=S(=O)(c1cccc(-c2cncc(-c3cc(-c4cc(Cl)ccc4F)nc4ncccc34)c2)c1)N1CCNCC1 [compound 145, 2-(5-Chloro-2-fluoro-phenyl)-4-{5-[3-(piperazine-1-sulfonyl)-phenyl]-pyridin-3-yl}-[1,8]naphthyridine]
- IC50 [1]: 1000 to 10000 nM
- IC50 (GST-ALK5): 100 to 1000 nM

Compound: CC1(C)CCNc2ccc(-c3cncc(-c4cc(-c5cc(Cl)ccc5F)nc5ncccc45)c3)cc21 [compound 146, 2-(5-Chloro-2-fluoro-phenyl)-4-[5-(4,4-dimethyl-1,2,3,4-tetrahydro-quinolin-6-yl)-pyridin-3-yl]-[1,8]naphthyridine]
- IC50 [1]: 100 to 1000 nM
- IC50 (GST-ALK5): 100 to 1000 nM

Compound: Fc1ccc(F)c(-c2cc(-c3cncc(-c4cccc(OCC5CCNCC5)c4)c3)c3cccnc3n2)c1 [compound 147, 2-(2,5-Difluoro-phenyl)-4-{5-[3-(piperidin-4-ylmethoxy)-phenyl]-pyridin-3-yl}-[1,8]naphthyridine]
- IC50 [1]: 1000 to 10000 nM
- IC50 (GST-ALK5): 100 to 1000 nM

Compound: Fc1ccc(F)c(-c2cc(-c3cncc(-c4cccc(OCCN5CCNCC5)c4)c3)c3cccnc3n2)c1 [compound 148, 2-(2,5-Difluoro-phenyl)-4-{5-[3-(2-piperazin-1-yl-ethoxy)-phenyl]-pyridin-3-yl}-[1,8]naphthyridine]
- IC50 [1]: < 100 nM
- IC50 (GST-ALK5): < 100 nM

Compound: CN1CCc2cc(-c3cncc(-c4cc(-c5cc(Cl)ccc5F)nc5ncccc45)c3)ccc21 [compound 149, 2-(5-Chloro-2-fluoro-phenyl)-4-[5-(1-methyl-2,3-dihydro-1H-indol-5-yl)-pyridin-3-yl]-[1,8]naphthyridine]
- IC50 [1]: < 100 nM
- IC50 (GST-ALK5): 100 to 1000 nM
